{
  "source": "patent US20060160864A1",
  "about": "“Acrylamide derivative, process for producing the same, and use” (priority 2003, published 2006)",
  "data": [
    {"biological_target": "T1, human CCR5 (Homo sapiens, UniProt P51681)", "T1 construct": "expressed in transfected cells", "T1 sequence (P51681 whole entry)": "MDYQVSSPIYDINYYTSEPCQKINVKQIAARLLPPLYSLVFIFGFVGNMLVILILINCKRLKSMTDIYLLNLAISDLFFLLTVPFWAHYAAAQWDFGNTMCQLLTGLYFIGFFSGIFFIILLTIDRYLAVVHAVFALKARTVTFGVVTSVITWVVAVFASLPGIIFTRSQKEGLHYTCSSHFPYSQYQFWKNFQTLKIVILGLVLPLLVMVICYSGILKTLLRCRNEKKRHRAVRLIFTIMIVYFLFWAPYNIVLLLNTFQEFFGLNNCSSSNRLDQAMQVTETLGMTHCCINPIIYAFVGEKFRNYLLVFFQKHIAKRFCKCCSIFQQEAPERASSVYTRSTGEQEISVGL", "assay": "Inhibition of [125I]-RANTES binding to CCR5/CHO cells (CCR5 antagonist activity)", "details": "40 min, test compound 1 μM, [125I]-RANTES 100 pM, CCR5/CHO strains, room temperature, read-out: Binding Inhibitory Ratio (%)", "procedure": "Cloning of a CCR5 gene was conducted from human spleen cDNA by a PCR method. Using 0.5 ng of spleen cDNA (Toyobo Co., Ltd., QUICK-Clone cDNA) as a template, the PCR reaction was carried out in a DNA Thermal Cycler 480 (Perkin Elmer) using a TaKaRa EX Taq (Takara Shuzo Co., Ltd.) (reaction conditions: 30 cycles of treatments at 95° C. for 1 minute, at 60° C. for 1 minute, and at 75° C. for 5 minutes) by adding 25 pmol of primers, SEQ ID NO. 1 (sequence length: 34; sequence type: nucleic acid; number of chains: a single chain; topology: linear; sequence kind: other nucleic acid, synthetic DNA) described in Experimental Example (1) of WO 99/32100, and SEQ ID NO. 2 (sequence length: 34; sequence type: nucleic acid; number of chains: a single chain; topology: linear; sequence kind: other nucleic acid, synthetic DNA) described in Experimental Example (1) of WO 99/32100, respectively, which were prepared by referring to the base sequence of the CCR5 gene described by Samson et al. (Biochemistry 35 (11), 3362-3367 (1996)). The PCR products were subjected to agarose gel electrophoresis to collect DNA fragments of about 1.0 kb. Then, the CCR5 gene was cloned using an Original TA Cloning Kit (Funakoshi Co., Ltd.).\nThe plasmids obtained above were digested with restriction enzymes XbaI (Takara Shuzo Co., Ltd.) and BamHI (Takara Shuzo Co., Ltd.), and subjected to agarose gel electrophoresis to collect DNA fragments of about 1.0 kb. The DNA fragments and a plasmid pcDNA3.1 (Funakoshi Co., Ltd.) for expression in animal cells, which was previously digested with XbaI and BamHI, were mixed and ligated by DNA Ligation Kit Ver.2 (Takara Shuzo Co., Ltd.). Transformation of E. coli JM109 competent cells (Takara Shuzo Co., Ltd.) gave plasmid pCKR5.\nCHO-K1 cells grown in a 750 ml tissue culture flask (Becton Dickinson) using Ham's F12 medium (Nihon Pharmaceutical Co., Ltd.) containing 10% fetal bovine serum (Lifetech Oriental) were collected from the flask by using 0.5 g/L trypsin-0.2 g/L EDTA (Lifetech Oriental). The cells were then washed with PBS (Lifetech Oriental), centrifuged (1000 rpm, 5 minutes), and suspended in PBS. Next, DNA was introduced into the cells using Gene Pulser (Bio-Rad Laboratories Inc.) under the following conditions. Namely, 8×10^6 cells and 10 μg of plasmid pCKR5 for expression of human CCR5 were added into a cuvette of a 0.4 cm-gap, and electroporation was carried out at an electric voltage of 0.25 kV and a capacitance of 960 μF. Subsequently, the cells were transferred into Ham's F12 medium containing 10% fetal bovine serum, and incubated for 24 hours. The cells were again collected, centrifuged, and then suspended in Ham's F12 medium containing 10% fetal bovine serum and Geneticin (Lifetech Oriental) at a concentration of 500 μg/ml. The suspension of cells was diluted to a concentration of 10^4 cells/ml, and inoculated on a 96-well plate (Becton Dickinson) to give Geneticin-resistant strains.\nSubsequently, the Geneticin-resistant strains were cultured in the 96-well plate (Becton Dickinson), and then CCR5-expressing cells were selected from the resistant strains. Namely, an assay buffer (Ham's F12 medium containing 0.5% BSA, and 20 mM HEPES (Wako Pure Chemical Industries, Ltd., pH 7.2)) containing 200 pM [^125I]-RANTES (Amersham) as a ligand was added to each well and the binding reaction was carried out at room temperature for 40 minutes. Each well plate containing the cells was washed with ice-cooled PBS, and then to each well was added 1 M NaOH in an amount of 50 μl/well, which was stirred. The cells to which the ligand bound specifically, i.e., CCR5/CHO strains, were selected by measurement of radioactivity by γ-counter.\nThe CCR5/CHO strains were inoculated on a 96-well microplate at a concentration of 5×10^4 cells/well, respectively and were cultured for 24 hours. […]", "units": {"inhibition at 1 µM": "%"}, "values": [
      {"smiles": "CCCCOCCOc1ccc(-c2ccc(N3CCC(C(=O)O)C3)c(/C=C(\\C)C(=O)Nc3ccc([S@@+]([O-])Cc4cncn4CCC)cc3)c2)cc1", "note": "(some centres unmarked) [Compound 41, (Ss)-(2E)-3-[4′-(2-butoxyethoxy)-4-(3-carboxypyrrolidin-1-yl)-1,1′-biphenyl-3-yl]-2-methyl-N-[4-[[(1-propyl-1H-imidazol-5-yl)methyl]sulfinyl]phenyl]acrylamide]", "inhibition at 1 µM": 100},
      {"smiles": "CCCCOCCOc1ccc(-c2cnc(N3CCC(CO)C3)c(/C=C(\\C)C(=O)Nc3ccc([S@@+]([O-])Cc4cncn4CCC)cc3)c2)cc1", "note": "(some centres unmarked) [Compound 50, (Ss)-(2E)-3-[5-[4-(2-butoxyethoxy)phenyl]-2-[3-(hydroxymethyl)pyrrolidin-1-yl]pyridin-3-yl]-2-methyl-N-[4-[[(1-propyl-1H-imidazol-5-yl)methyl]sulfinyl]phenyl]acrylamide]", "inhibition at 1 µM": 100},
      {"smiles": "CCCCOCCOc1ccc(-c2ccc(N3CCC(CC(=O)OCC)C3)c(/C=C(\\C)C(=O)Nc3ccc([S@@+]([O-])Cc4cncn4CCC)cc3)c2)cc1", "note": "(some centres unmarked) [Compound 61, (Ss)-(2E)-3-[4′-(2-butoxyethoxy)-4-[3-(2-ethoxy-2-oxoethyl)pyrrolidin-1-yl]-1,1′-biphenyl-3-yl]-2-methyl-N-(4-[[(1-propyl-1H-imidazol-5-yl)methyl]sulfinyl]phenyl]acrylamide]", "inhibition at 1 µM": 94},
      {"smiles": "CCCCOCCOc1ccc(-c2ccc(N3CCC(CC(=O)O)C3)c(/C=C(\\C)C(=O)Nc3ccc([S@@+]([O-])Cc4cncn4CCC)cc3)c2)cc1", "note": "(some centres unmarked) [Compound 62, (Ss)-(2E)-3-[4′-(2-butoxyethoxy)-4-[3-(carboxymethyl)pyrrolidin-1-yl]-1,1′-biphenyl-3-yl]-2-methyl-N-[4-[[(1-propyl-1H-imidazol-5-yl)methyl]sulfinyl]phenyl]acrylamide]", "inhibition at 1 µM": 100}
    ]},
    {"tested_on": "not given", "assay": "not given", "details": "not given", "units": {"melting point": "°C"}, "values": [
      {"smiles": "CCCCOCCOc1ccc(-c2ccc(N3CCC4(C3)OCCO4)c(/C=C(\\C)C(=O)Nc3ccc([S@@+]([O-])Cc4cncn4CCC)cc3)c2)cc1", "note": "[Compound 37, (S)-(2E)-3-[4′-(2-butoxyethoxy)-4-(1,4-dioxa-7-azaspiro[4.4]non-7-yl)-1,1′-biphenyl-3-yl]-2-methyl-N-[4-[[(1-propyl-1H-imidazol-5-yl)methyl]sulfinyl]phenyl]acrylamide]", "melting point": "139.5 to 140.5"},
      {"smiles": "CCCCOCCOc1ccc(-c2ccc(N3CCC(C(=O)O)C3)c(/C=C(\\C)C(=O)Nc3ccc([S@@+]([O-])Cc4cncn4CCC)cc3)c2)cc1", "note": "(some centres unmarked) [Compound 41, (Ss)-(2E)-3-[4′-(2-butoxyethoxy)-4-(3-carboxypyrrolidin-1-yl)-1,1′-biphenyl-3-yl]-2-methyl-N-[4-[[(1-propyl-1H-imidazol-5-yl)methyl]sulfinyl]phenyl]acrylamide]", "melting point": "184 to 186"},
      {"smiles": "CCCCOCCOc1ccc(-c2ccc(N3CCC(C(=O)NC)C3)c(/C=C(\\C)C(=O)Nc3ccc([S@@+]([O-])Cc4cncn4CCC)cc3)c2)cc1", "note": "(some centres unmarked) [Compound 44, (Ss)-(2E)-3-[4′-(2-butoxyethoxy)-4-[3-(methylaminocarbonyl)pyrrolidin-1-yl]-1,1′-biphenyl-3-yl]-2-methyl-N-[4-[[(1-propyl-1H-imidazol-5-yl)methyl]sulfinyl]phenyl]acrylamide]", "melting point": "127 to 128.5"},
      {"smiles": "CCCCOCCOc1ccc(-c2ccc(N3CCC(C(=O)N(C)C)C3)c(/C=C(\\C)C(=O)Nc3ccc([S@@+]([O-])Cc4cncn4CCC)cc3)c2)cc1", "note": "(some centres unmarked) [Compound 45, (Ss)-(2E)-3-[4′-(2-butoxyethoxy)-4-[3-(dimethylaminocarbonyl)pyrrolidin-1-yl]-1,1′-biphenyl-3-yl]-2-methyl-N-[4-[[(1-propyl-1H-imidazol-5-yl)methyl]sulfinyl]phenyl]acrylamide]", "melting point": "151 to 152"}
    ]}
  ]
}
